# ChEMBL document CHEMBL2034870, “Activity landscape modeling of PPAR ligands with dual-activity difference maps” (Bioorg Med Chem, 2012)
# pIC50: −log10 of the molar value.
# Assays:
# [1] = biological target: T1, Peroxisome proliferator-activated receptor alpha (Homo sapiens, UniProt Q07869); type: functional; settings: for IC50: read-out: pIC50 (converted); for pIC50: read-out: IC50
# T1 sequence (Q07869 whole entry): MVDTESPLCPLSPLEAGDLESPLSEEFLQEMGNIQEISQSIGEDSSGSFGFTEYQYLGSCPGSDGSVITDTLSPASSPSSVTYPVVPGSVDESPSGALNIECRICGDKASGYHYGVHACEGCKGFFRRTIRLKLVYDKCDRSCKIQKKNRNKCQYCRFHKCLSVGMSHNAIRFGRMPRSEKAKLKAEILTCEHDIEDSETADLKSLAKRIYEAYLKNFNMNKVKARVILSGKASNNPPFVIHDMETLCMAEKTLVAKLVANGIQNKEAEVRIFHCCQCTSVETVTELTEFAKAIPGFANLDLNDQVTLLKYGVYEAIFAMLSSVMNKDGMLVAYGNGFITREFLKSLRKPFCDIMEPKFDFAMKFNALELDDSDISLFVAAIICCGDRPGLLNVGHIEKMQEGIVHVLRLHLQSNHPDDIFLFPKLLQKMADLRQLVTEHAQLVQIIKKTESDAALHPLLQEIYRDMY
# [2] = biological target: T2, Peroxisome proliferator-activated receptor delta (Homo sapiens, UniProt Q03181); type: functional; settings: for IC50: read-out: pIC50 (converted); for pIC50: read-out: IC50
# T2 sequence (Q03181 whole entry): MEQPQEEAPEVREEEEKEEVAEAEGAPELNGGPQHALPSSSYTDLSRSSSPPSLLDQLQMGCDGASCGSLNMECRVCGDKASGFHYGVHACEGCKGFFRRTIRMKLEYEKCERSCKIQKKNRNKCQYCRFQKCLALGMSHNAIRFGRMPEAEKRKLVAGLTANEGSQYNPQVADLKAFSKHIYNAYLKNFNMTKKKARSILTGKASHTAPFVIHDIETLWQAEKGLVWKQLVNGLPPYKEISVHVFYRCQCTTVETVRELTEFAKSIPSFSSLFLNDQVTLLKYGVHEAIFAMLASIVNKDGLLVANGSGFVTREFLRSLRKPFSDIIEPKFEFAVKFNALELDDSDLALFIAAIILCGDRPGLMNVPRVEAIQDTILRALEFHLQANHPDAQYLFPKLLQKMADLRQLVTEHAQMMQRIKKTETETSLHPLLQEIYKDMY
IC50 [1] [nM],IC50 [2] [nM],pIC50 [1],pIC50 [2],Compound
–,190,–,–,O=C1NC(=O)[C@H](c2cccc(OCCCOc3ccc(Oc4ccccc4)cc3)c2)S1
–,–,5.73,5.14,CCCC[C@@](Cc1ccc(OCCc2nc(-c3ccccc3)oc2C)cc1)(Oc1ccccc1)C(=O)O
352,372,–,–,CCO[C@H](Cc1ccc2c(c1)cc(C)n2Cc1nc(-c2ccc(C(F)(F)F)cc2)oc1C)C(=O)O
–,–,6.09,5.16,O=C(O)[C@@H]1CCc2ccc(OCCCOc3ccc(OCC(F)(F)F)cc3Cl)cc2O1
61,891,–,–,Cc1oc(-c2ccc(C(F)(F)F)cc2)nc1Cn1ccc2cc(C[C@@H](OC(C)C)C(=O)O)ccc21
125,3500,–,–,CCO[C@@H](Cc1cccc2c1ccn2Cc1nc(-c2ccccc2)oc1C)C(=O)O
–,3850,–,–,CCCc1cc(C2CCCC2)ccc1OCCCOc1cccc([C@H]2OC(=O)NC2=O)c1

# More lines, now with the values behind:
Compound,IC50 [1] [nM],IC50 [2] [nM],pIC50 [1],pIC50 [2]
CCCc1c(OCCCSc2ccc(CC(=O)O)cc2Cl)ccc(/C(CC)=N\O)c1O,100,10,–,–
Cc1oc(-c2ccccc2)nc1CCOc1ccc(C[C@H](Oc2ccccc2)C(=O)O)cc1,–,–,5.96,5.15
CC[C@@](Cc1ccc(OCCc2nc(-c3ccccc3)oc2C)cc1)(Oc1ccccc1)C(=O)O,473,5070,–,–
CCCn1c(CCCc2ccc(OC(C)(C)C(=O)O)cc2)nn([C@H](C)c2ccccc2)c1=O,220,1500,–,–
CC(C)Cc1cc(Oc2ccccc2)ccc1OCCCOc1ccc([C@@H]2SC(=O)NC2=O)cc1,–,–,6.47,6.80
CCCc1cc(Oc2ccc(O)cc2)ccc1OCCCOc1cccc([C@@H]2SC(=O)NC2=O)c1,–,–,–,5.42
CCCO[C@H](Cc1ccc2c(ccn2Cc2nc(-c3ccc(C(F)(F)F)cc3)oc2C)c1)C(=O)O,40,–,–,–
CCCc1cc(-c2ccccc2)ccc1OCCCOc1cccc([C@@H]2OC(=O)NC2=O)c1,–,1510,–,–
CCCc1cc(OC2CCCC2)ccc1OCCCOc1cccc([C@@H]2SC(=O)NC2=O)c1,–,920,–,–
CCCc1cc(-c2noc3ccccc23)ccc1OCCCOc1cccc([C@@H]2SC(=O)NC2=O)c1,–,140,–,–
CCCc1cc(C(=O)c2ccccc2)ccc1OCCCOc1cccc([C@@H]2SC(=O)NC2=O)c1,–,170,–,–
